Test results: ChEMBL document CHEMBL1159353, “New stigmastane sterols from Ajuga salicifolia” (J Nat Prod, 2003)
Converted amounts (≈) assume the structure as drawn. The source made the active and inactive calls. The rule behind the calls is not given here.

Key:
Jurkat = test: Cytotoxicity against human Jurkat cells at 20 ug/ml; type: functional, cell-based
KB = test: Cytotoxicity against human KB cells; type: functional, cell-based

Compound | Activity (Jurkat) | IC50 (KB) [µg/mL]
CC[C@H]1[C@H](O)[C@H]([C@@H](C)[C@@]2(O)[C@@H](O)C[C@H]3C4=CC[C@H]5C[C@@H](O[C@@H]6O[C@H](COC(C)=O)[C@@H](O)[C@H](O)[C@H]6O)CC[C@]5(C)[C@H]4CC[C@@]32C)O[C@]1(C)COC(C)=O | inactive | 
CC[C@H]1[C@H](O)[C@H]([C@@H](CO)[C@@]2(O)[C@@H](O)C[C@H]3C4=CC[C@H]5C[C@@H](O)CC[C@]5(C)[C@H]4CC[C@@]32C)O[C@]1(C)CO [AJUGASALICIGENIN] | inactive | 1 (≈ 1.97 µM)
CC[C@H]1C[C@H]([C@@H](C)C2[C@@H](O)C[C@H]3C4=CC[C@H]5C[C@@H](O[C@@H]6O[C@H](CO)[C@@H](O)[C@H](O)[C@H]6O[C@@H]6O[C@H](CO)[C@@H](O)[C@H](O)[C@H]6O)CC[C@]5(C)[C@H]4CC[C@]23C)O[C@]1(C)CO[C@@H]1O[C@H](CO)[C@@H](O)[C@H](O)[C@H]1O[C@@H]1O[C@H](CO)[C@@H](O)[C@H](O)[C@H]1O (stereo partly specified) | inactive | 
CC[C@H]1[C@H](O)[C@H]([C@@H](CO)[C@@]2(O)[C@@H](O)C[C@H]3C4=CC[C@H]5C[C@@H](O[C@@H]6O[C@H](CO)[C@@H](O)[C@H](O)[C@H]6O)CC[C@]5(C)[C@H]4CC[C@@]32C)O[C@]1(C)CO [AJUGASALICIOSIDE F] | inactive | 13 (≈ 19.4 µM)
